Assay results: PubChem BioAssay AID1013 (Columbia University Molecular Screening Center, 2008)
The source made the active and inactive calls. No rule for the calls is given here.

Experiments:
[1] = blockers of VCAM1 upregulation by TNFa – imaging, TNFa stimulus, retest and dose response, confirmation (AID 1013); conditions: TNFa-stimulated cells, VCAM1 expression imaging; cell count; at 10 µM; stronger effect = lower value;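 as to cell count: compound on cells 1 h before TNFa then 24 h more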
[2] = system: TNFa-stimulated cells, VCAM1 expression imaging; assay: as above

Structure (SMILES): COc1ccc(CS(=O)(=O)/C(Cl)=C(/Cl)C(=O)Nc2ccc(OC)nc2)cc1
- cell count [1]: 2.22%
- IC50 [2]: 2 µM

Structure (SMILES): Cc1ccc(Nc2nc(-c3c(C)nc4ccccn34)cs2)cc1
- cell count [1]: 27.9%
- IC50 [2]: 3.8 µM

Structure (SMILES): CC(/C=N/NC(=O)c1cc(-c2ccncc2)nc2ccccc12)=C\c1ccco1
- cell count [1]: 30.4%
- IC50 [2]: 3.6 µM

Structure (SMILES): Cc1ccc(CSc2nc3ccccc3cc2C=O)cc1
- cell count [1]: 110%
- IC50 [2]: > 10 µM (inactive)

Structure (SMILES): COc1ccc(NC(=O)/C(Cl)=C(/Cl)S(=O)Cc2ccc(C)cc2)cn1 (configuration not stated)
- cell count [1]: 55%
- IC50 [2]: 2.19 µM

Structure (SMILES): COc1cc(C2C(C#N)=C(N)Oc3cc(N(C)C)ccc32)cc2c1OCO2 (configuration not stated)
- cell count [1]: 47.6%
- IC50 [2]: 5.11 µM

Structure (SMILES): CCOC(=O)C1=C(c2ccccc2)O/C(=C(/C#N)C(F)(F)F)S1
- cell count [1]: 107%
- IC50 [2]: > 10 µM (inactive)

Structure (SMILES): CCCOc1ccccc1C1CC(=O)Nc2cc3c(cc21)OCCO3 (configuration not stated)
- cell count [1]: 113%
- IC50 [2]: > 10 µM (inactive)

Structure (SMILES): O=C(Nc1nccs1)c1cccc(N2C(=O)c3cccc4c([N+](=O)[O-])ccc(c34)C2=O)c1
- cell count [1]: 102%
- IC50 [2]: > 10 µM (inactive)

Structure (SMILES): CC(/C=N/NC(=O)c1cc(-c2ccc(Cl)cc2)nc2ccccc12)=C\c1ccco1
- cell count [1]: 116%
- IC50 [2]: > 10 µM (inactive)

Structure (SMILES): Cc1cc(C)c2nc(SCC(=O)N3CC(=O)Nc4ccccc43)c(C#N)cc2c1
- cell count [1]: 47.2%
- IC50 [2]: 4.81 µM

Structure (SMILES): NC(=S)N/N=C\c1ccc(-c2cccc(Cl)c2Cl)o1
- cell count [1]: 106%
- IC50 [2]: > 10 µM (inactive)

Structure (SMILES): CCCCCc1ccc(-c2ccc(=O)[nH]n2)cc1
- cell count [1]: 91%
- IC50 [2]: 2.49 µM

Structure (SMILES): O=C(OCn1ncc(Br)c(Br)c1=O)c1c(F)cccc1F
- cell count [1]: 54.9%
- IC50 [2]: 8.04 µM

Structure (SMILES): COc1cc(/C=C(/C#N)C(=O)NCCc2c[nH]c3ccccc23)ccc1OCc1ccccc1F
- cell count [1]: 98.2%
- IC50 [2]: > 10 µM (inactive)

Structure (SMILES): O=S(=O)(c1ccc2c(c1)C(=NO)c1cc(S(=O)(=O)N3CCCCC3)ccc1-2)N1CCCCC1
- cell count [1]: 118%
- IC50 [2]: > 10 µM (inactive)

Structure (SMILES): Cc1ccccc1CS(=O)(=O)c1nnc([C@H](Cc2ccccc2)NC(=O)OC(C)(C)C)o1
- cell count [1]: 114%
- IC50 [2]: > 10 µM (inactive)

Structure (SMILES): COc1cc(C2C(C#N)=C(C)NC3=C2C(=O)c2ccccc23)cc(OC)c1OC (configuration not stated)
- cell count [1]: 32%
- IC50 [2]: 0.221 µM

Structure (SMILES): CCSc1nc2ccccc2n1C(=O)/C=C\c1ccc(OC)c(OC)c1
- cell count [1]: 98.3%
- IC50 [2]: > 10 µM (inactive)

Structure (SMILES): Cc1ccc(C(=O)c2cc([N+](=O)[O-])ccc2N2CCOCC2)c(C)c1
- cell count [1]: 41.4%
- IC50 [2]: 2.86 µM

Structure (SMILES): O=C1C(=O)c2ccc(-c3ccccc3)cc2-c2ccccc21
- cell count [1]: 109%
- IC50 [2]: > 10 µM (inactive)

Structure (SMILES): COCCOC(=O)c1[nH]c2c(c1C)C(=O)CC(c1ccccc1)C2 (configuration not stated)
- cell count [1]: 63%
- IC50 [2]: > 10 µM (inactive)

Structure (SMILES): CCN1/C(=C\C=C\C2=[N+](CC)c3ccccc3C2(C)C)C(C)(C)c2ccccc21
- cell count [1]: 60.4%
- IC50 [2]: 0.41 µM

Structure (SMILES): Cc1ccc(-n2ncc3c(N4CCN(c5ccccc5)CC4)ncnc32)c(C)c1
- cell count [1]: 111%
- IC50 [2]: > 10 µM (inactive)

Structure (SMILES): COc1ccc(OC)c(C2C3=C(COC3=O)Nc3cc4c(cc32)OCO4)c1 (configuration not stated)
- cell count [1]: 112%
- IC50 [2]: > 10 µM (inactive)

Structure (SMILES): COC(=O)C[C@]1(C(=O)OC)CN(C#N)N(c2ccc(Cl)cc2)C12c1ccccc1-c1ccccc12
- cell count [1]: 104%
- IC50 [2]: > 10 µM (inactive)

Structure (SMILES): COc1ccc(-c2cc(C(F)(F)F)n3nc(C(=O)Nc4cc(C)on4)cc3n2)cc1OC
- cell count [1]: 97.9%
- IC50 [2]: > 10 µM (inactive)

Structure (SMILES): Oc1ccc(Nc2nc3ccccc3nc2Nc2ccc(O)cc2)cc1
- cell count [1]: 1.62%
- IC50 [2]: 3.26 µM

Structure (SMILES): Cc1ccc2[nH]c3c(c2c1)CCC3=O
- cell count [1]: 72%
- IC50 [2]: 1 µM

Structure (SMILES): Cc1ccccc1NC1=C/C(=N\S(=O)(=O)c2cccs2)c2ccccc2C1=O
- cell count [1]: 99.8%
- IC50 [2]: > 10 µM (inactive)

Structure (SMILES): Cc1ccc(Cl)cc1NC1=C/C(=N\S(=O)(=O)c2cccs2)c2ccccc2C1=O
- cell count [1]: 123%
- IC50 [2]: > 10 µM (inactive)

Structure (SMILES): CCC(=O)Nc1nc(-c2ccccc2)ns1
- cell count [1]: 115%
- IC50 [2]: > 10 µM (inactive)

Structure (SMILES): Cc1c(C(=O)OCC(C)C)[nH]c2c1C(=O)CC(c1ccco1)C2 (configuration not stated)
- cell count [1]: 48.4%
- IC50 [2]: > 10 µM (inactive)

Structure (SMILES): CC1CCC/C=C/C2CC(O)CC2C(O)/C=C/C(=O)O1 (configuration not stated)
- cell count [1]: 19.2%
- IC50 [2]: 0.112 µM

Structure (SMILES): COC(=O)c1ccccc1NC(=O)Cn1c(-c2nonc2N)nc2ccccc21
- cell count [1]: 104%
- IC50 [2]: > 10 µM (inactive)

Structure (SMILES): CCn1c2ccccc2c2cc(NC(=O)c3cc(OC)c(OC)c(OC)c3)ccc21
- cell count [1]: 33.6%
- IC50 [2]: 2.79 µM

Structure (SMILES): COc1ccccc1-c1cc(C(F)(F)F)nc(S(=O)(=O)CCCC(=O)N2CCCCC2C)n1 (configuration not stated)
- cell count [1]: 88.8%
- IC50 [2]: > 10 µM (inactive)

Structure (SMILES): Cc1cccc(CS(=O)(=O)c2nnc([C@H](Cc3ccccc3)NC(=O)OC(C)(C)C)o2)c1
- cell count [1]: 99.2%
- IC50 [2]: > 10 µM (inactive)

Structure (SMILES): O=[N+]([O-])c1ccc(Sc2nc3ccccc3o2)c([N+](=O)[O-])c1
- cell count [1]: 106%
- IC50 [2]: > 10 µM (inactive)

Structure (SMILES): Cc1cccc(OCC(=O)Nc2cc(C)ccc2O)c1
- cell count [1]: 91.2%
- IC50 [2]: 0.452 µM

Structure (SMILES): CCOC(=O)Nc1nc(-c2ccccc2)c(C(=O)c2ccccc2)s1
- cell count [1]: 61.6%
- IC50 [2]: > 10 µM (inactive)

Structure (SMILES): CCC(C)[C@@H](NC(=O)OC(C)(C)C)c1nnc(S(=O)(=O)Cc2cccc(C)c2)o1 (some centres not stated)
- cell count [1]: 95.6%
- IC50 [2]: > 10 µM (inactive)

Structure (SMILES): O=C(NC(Nc1nc2ccc([N+](=O)[O-])cc2s1)(C(F)(F)F)C(F)(F)F)c1ccccc1
- cell count [1]: 46.9%
- IC50 [2]: 0.34 µM

Structure (SMILES): COc1ccc(-c2cc3ccccc3oc2=O)cc1NC(=O)c1ccc([N+](=O)[O-])o1
- cell count [1]: 107%
- IC50 [2]: > 10 µM (inactive)

Structure (SMILES): Cc1cc(NC(=O)CSc2nc(-c3cccs3)cc(C(F)(F)F)n2)no1
- cell count [1]: 111%
- IC50 [2]: > 10 µM (inactive)

Structure (SMILES): CCOc1ccc(S(=O)(=O)Nc2cc(OC)ccc2OC)cc1
- cell count [1]: 45.4%
- IC50 [2]: 1.78 µM

Structure (SMILES): COc1ccc(CCNc2nnc(Sc3nnnn3-c3ccccc3)s2)cc1OC
- cell count [1]: 27.4%
- IC50 [2]: 1.61 µM

Structure (SMILES): COc1cc2c(O)c3c(c(-c4ccc5c(c4)OCO5)c2cc1OC)C(=O)OC3
- cell count [1]: 86.8%
- IC50 [2]: 3.24 µM

Structure (SMILES): COc1ccc(C(=O)c2ccc(N(C)C)cc2)c2ccccc12
- cell count [1]: 93.2%
- IC50 [2]: > 10 µM (inactive)

Structure (SMILES): CN(C)c1ccc(C(=O)c2ccc(N(C)C)c3ccccc23)cc1
- cell count [1]: 27.7%
- IC50 [2]: 1.72 µM

Structure (SMILES): CCC1=Nc2cc(C(=O)NCCCOC)ccc2Sc2ccccc21
- cell count [1]: 34.9%
- IC50 [2]: 1.67 µM
